System: Bifidobacterium species
Test: Comparative growth of Bifidobacterium species in scratch MRS with 2% carbohydrate
Type: cell-based
Settings: five (four) Bifidobacterium species; scratch MRS + 2% carbohydrate
Method: The objective of the study was to determine the ability of various Bifidobacterium species and strains to grow on galactooligosaccharides.
The growth of Lactobacillus and Bifidobacterium strains was evaluated in scratch MRS (Table 16) supplemented with 2% of a carbohydrate solution. The carbohydrates used in the experiments were: Glucose—Fisher; Lactose—Fisher; GOS1—95% GOS purity from Inalco SPA—Provided by Ritter Pharmaceuticals; GOS2—90% GOS purity from GTC—provided by Ritter Pharmaceuticals.
Carbohydrate stock solutions were filter sterilized and then added to either a scratch MRS formulation (Table 16), or a semisynthetic medium (Table 17).
Lactobacillus and Bifidobacterium cultures were propagated in MRS broth overnight, and then transferred once through the test medium. For growth experiments, cultures were inoculated into the MRS scratch medium containing one of the 4 carbohydrates to be examined Growth was monitored either: **automatically, using a FLUOStar OPTIMA microtiter plate reader to monitor the change in absorbance (A600) as a function of the time. The strains were incubated at 37 C aerobically for these experiments; or ** manually, using a standard spectrophotometer to monitor the change in OD600 nm over time, in 5 ml liquid culture tubes. These cultures were incubated anaerobically at 37° C. in a COY anaerobic chamber, flushed with anaerobic gas. […]

OC[C@H]1O[C@@H](O[C@H]2[C@H](O)[C@@H](O)C(O)O[C@@H]2CO)[C@H](O)[C@@H](O)[C@H]1O (stereo partly shown) [lactose, Lactose]
comparative growth on four carbohydrate sources (glucose, lactose, GOS1, GOS2): none of the Bifidobacterium strains used in these experiments grew

Reference: patent publication US20150087616A1, “PREBIOTIC FORMULATIONS AND METHODS OF USE” (RITTER PHARMACEUTICALS, INC., priority 2011, published 2015)
